Consider 32 compounds from US9120808B2 (NABRIVA THERAPEUTICS AG, priority 2009, dated 2015).

Assay [1] addresses SHV-1 β-lactamase (Klebsiella pneumoniae, UniProt P0AD64). As to the kind of experiment: Cell-free β-lactamase inhibition study (nitrocefin hydrolysis). Type of assay: biochemical. The following applies: 10 min pre-incubation at 37° C., nitrocefin substrate. Here is the method: (§1) Cell-Free-β-Lactamase Inhibition Study
(§2) Assays are performed with β-lactamases expressed in the pET system (Novagen, San Diego, Calif.) without signal peptides. They contain an N-terminal hexa-Histidine tag that is used for purification on Ni-NTA (Qiagen, Hilden, Germany). The compounds are prepared as 50 mM stocks in DMSO and diluted into buffer P1 (50 mM phosphate, pH 7) to a final concentration of 10% DMSO. All further dilutions are done in P2 (P1 with 10% DMSO). Enzyme and compound dilutions are pre-incubated for 10 min at 37° C. and the reaction is started with the addition of pre-warmed (37° C.) nitrocefin at a final concentration of […]. […] The initial velocity is determined and IC50 values are calculated using non-linear regression and sigmoidal dose response analysis with the PRISM 4.0 software (Graphpad Software Inc., San Diego, Calif.).

Assay [2] deals with TEM-1 β-lactamase (Escherichia coli, UniProt P62593). The assay is described as above. The assay is classed as biochemical. As to conditions: 10 min pre-incubation at 37° C., nitrocefin substrate. The method, then: as §1, §2

Molecules are shown by their SMILES. Like-named read-outs stand apart in the source and are kept apart here.

Chain of TEM-1 β-lactamase (P62593 whole entry, looked up): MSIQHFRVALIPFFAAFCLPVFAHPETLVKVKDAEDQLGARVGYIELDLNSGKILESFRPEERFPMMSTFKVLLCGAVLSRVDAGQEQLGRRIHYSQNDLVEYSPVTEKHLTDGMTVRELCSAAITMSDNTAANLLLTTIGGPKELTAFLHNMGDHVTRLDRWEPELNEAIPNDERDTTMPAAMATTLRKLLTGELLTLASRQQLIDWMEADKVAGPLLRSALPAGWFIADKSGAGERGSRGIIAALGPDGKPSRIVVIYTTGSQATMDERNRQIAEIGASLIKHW
Chain of SHV-1 β-lactamase (P0AD64 whole entry, looked up): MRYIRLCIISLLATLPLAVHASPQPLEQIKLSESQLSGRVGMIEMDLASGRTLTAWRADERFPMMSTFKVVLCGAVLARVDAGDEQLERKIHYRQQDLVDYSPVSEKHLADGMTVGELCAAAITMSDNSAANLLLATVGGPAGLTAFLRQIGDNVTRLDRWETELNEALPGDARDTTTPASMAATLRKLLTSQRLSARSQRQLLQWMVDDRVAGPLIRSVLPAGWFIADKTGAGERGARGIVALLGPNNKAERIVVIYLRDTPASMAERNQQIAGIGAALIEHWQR

The IC50 is the concentration at which inhibition is half-maximal. With `O=C1OC(CI)CC1=C1O[C@@H]2CC(=O)N2C1C(=O)OCc1ccccc1` (single isomer, unassigned) [Example 42], the concentration for half-maximal inhibition (IC50) was found to be 0.8 nM in assay [1] (SHV-1, read-out: IC50) and 1.7 nM in assay [2].
In the case of `C=CCC1(C(=O)OC)C(=CC=O)O[C@@H]2CC(=O)N21` (stereo partly drawn) [Example 17, (5R)-2-Allyl-7-oxo-3-[2-oxo-ethylidene]-4-oxa-1-aza-bicyclo[3.2.0]heptane-2-carboxylic acid methyl ester], the half-inhibitory concentration (IC50) in assay [1] (SHV-1, read-out: IC50) was 21300 nM; in assay [2], 13300 nM.
As to `O=CC=C1O[C@@H]2CC(=O)N2C1(CC=CCO)C(=O)OCc1ccccc1` (single isomer, unassigned) [Example 8], the IC50 in assay [2] turned out to be 5640 nM.
`CC(C)(C)C(=O)OCOC(=O)C1(C/C=C/c2ccccc2)C(=CC=O)O[C@@H]2CC(=O)N21` (stereo partly drawn) [Example 19, (5R)-7-oxo-3-(2-oxo-ethylidene)-2-(3-phenyl-allyl)-4-oxa-1-aza-bicyclo[3.2.0]heptane-2-carboxylic acid 2,2-dimethyl-propionyloxymethyl ester]: the 50% inhibitory concentration (IC50) came out at 617 nM in assay [1] (SHV-1, read-out: IC50) and 871 nM in assay [2].
The matching figures for `[N-]=[N+]=NCC1C/C(=C2\O[C@@H]3CC(=O)N3C2C(=O)OCc2ccccc2)C(=O)O1` (stereo partly drawn) [Example 48, (5R)-3-(5-Azidomethyl-2-oxo-dihydro-furan-3-ylidene)-7-oxo-4-oxa-1-aza-bicyclo[3.2.0]heptane-2-carboxylic acid benzyl ester]: 4.2 nM and 2.4 nM.
In turn, `CC(=O)OCC=CCC(C=O)=C1O[C@@H]2CC(=O)N2C1C(=O)OCc1ccccc1` (stereo partly drawn) [Example 10, (5R)-3-[5-Acetoxy-1-formyl-pent-3-enylidene]-7-oxo-4-oxa-1-aza-bicyclo[3.2.0]heptane-2-carboxylic acid benzyl ester] returned an IC50 in assay [2] of 140 nM.
`COC(=O)C1/C(=C2/CC(CI)OC2=O)O[C@@H]2CC(=O)N12` (stereo partly shown) [Mixture of Example 43 and Example 44]: the IC50 in assay [1] (SHV-1, read-out: IC50) is 4.3 nM.
On to `COC(=O)C1C(=C(CCCc2ccccc2)C(=O)O)O[C@@H]2CC(=O)N12` (stereo partly drawn) [Example 53, (5R)-3-(1-Carboxy-4-phenyl-butylidene)-7-oxo-4-oxa-1-aza-bicyclo[3.2.0]heptane-2-carboxylic acid methyl ester], for which the IC50 came out at 219 nM in assay [1] (SHV-1, read-out: IC50) and 72.8 nM in assay [2].
Turning to `O=C(O)C=C1O[C@@H]2CC(=O)N2C1(C/C=C/c1ccccc1)C(=O)OCc1ccccc1` (single isomer, unassigned) [Example 27], the IC50 in assay [1] (SHV-1, read-out: IC50) worked out at 624 nM; in assay [2], 426 nM.
As for `C=CCC(C=O)=C1O[C@@H]2CC(=O)N2C1C(=O)OCc1ccccc1` (stereo partly drawn) [Example 1, (5R)-3-(1-Formyl-but-3-enylidene)-7-oxo-4-oxa-1-aza-bicyclo[3.2.0]heptane-2-carboxylic acid benzyl ester], in assay [2], the IC50 was found to be 66.6 nM.
In the case of `COC(=O)C(CCCc1ccccc1)=C1O[C@@H]2CC(=O)N2C1C(=O)OC` (stereo partly drawn) [Example 57, (5R)-3-(1-Methoxycarbonyl-4-phenyl-butylidene)-7-oxo-4-oxa-1-aza-bicyclo[3.2.0]heptane-2-carboxylic acid methyl ester], the IC50 in assay [1] (SHV-1, read-out: IC50) came to 22.6 nM; in assay [2] it was 10.6 nM.
The matching figures for `C=CC/C(CO)=C1/O[C@@H]2CC(=O)N2C1C(=O)OCc1ccccc1` (stereo partly drawn) [Example 38a, (5R)-3-[1-Hydroxymethyl-but-3-en-(Z)-ylidene]-7-oxo-4-oxa-1-aza-bicyclo[3.2.0]heptane-2-carboxylic acid benzyl ester]: 1710 nM and 1950 nM.
The matching figures for `O=C1OC(CI)CC1=C1O[C@@H]2CC(=O)N2C1C(=O)OCc1ccccc1` (single isomer, unassigned) [Example 41]: 0.4 nM and 0.2 nM.
The matching figures for `O=CC=C1O[C@@H]2CC(=O)N2C1(C/C=C/c1ccccc1)C(=O)OCc1ccccc1` (stereo partly drawn) [Example 5, (5R)-7-oxo-3-[2-oxo-ethylidene]-2-(3-phenyl-allyl)-4-oxa-1-aza-bicyclo[3.2.0]heptane-2-carboxylic acid benzyl ester]: 7140 nM and 4920 nM.
Regarding `COC(=O)C1C(=C(C=O)C/C=C/c2ccccc2)O[C@@H]2CC(=O)N12` (stereo partly shown) [Example 13], in assay [2], the IC50 came to 639 nM.
Consider `O=CC=C1O[C@@H]2CC(=O)N2C1(CC=CCO)C(=O)OCc1ccccc1` (single isomer, unassigned) [Example 9], for which the IC50 in assay [1] (SHV-1, read-out: IC50) is 1040 nM; in assay [2] it was 828 nM.
With `CC(C)(C)C(=O)OCOC(=O)C1C(=C(C=O)C/C=C/c2ccccc2)O[C@@H]2CC(=O)N12` (stereo partly drawn) [Example 18, (5R)-3-[1-Formyl-4-phenyl-but-3-enylidene]-7-oxo-4-oxa-1-aza-bicyclo[3.2.0]heptane-2-carboxylic acid 2,2-dimethyl-propionyloxymethyl ester], the IC50 in assay [1] (SHV-1, read-out: IC50) is 13.9 nM; in assay [2], 27.1 nM.
For `CC1C/C(=C2\O[C@@H]3CC(=O)N3C2C(=O)OCc2ccccc2)C(=O)O1` (single isomer, unassigned) [Example 46], the half-maximal inhibitory concentration (IC50) in assay [1] (SHV-1, read-out: IC50) was determined as 0.5 nM; in assay [2], 0.4 nM.
Consider `O=CC(C/C=C/c1ccccc1)=C1O[C@@H]2CC(=O)N2C1C(=O)OCc1ccccc1` (stereo partly drawn) [Example 4, (5R)-3-[1-Formyl-4-phenyl-but-3-enylidene]-7-oxo-4-oxa-1-aza-bicyclo[3.2.0]heptane-2-carboxylic acid benzyl ester], for which 89 nM corresponded to half-maximal inhibition in assay [2] (IC50).
As for `O=C(O)C(CC=CCN(Cc1ccccc1)C(=O)OCc1ccccc1)=C1O[C@@H]2CC(=O)N2C1C(=O)OCc1ccccc1` (stereo partly drawn) [Example 58, (5R)-3-[5-(Benzyl-benzyloxycarbonyl-amino)-1-carboxy-pent-3-enylidene]-7-oxo-4-oxa-1-aza-bicyclo[3.2.0]heptane-2-carboxylic acid benzyl ester], the IC50 in assay [1] (SHV-1, read-out: IC50) stood at 0.6 nM; in assay [2], 1.4 nM.
`CC(=O)OCC=CCC1(C(=O)OCc2ccccc2)C(=CC=O)O[C@@H]2CC(=O)N21` (stereo partly drawn) [Example 12, (5R)-2-(4-Acetoxy-but-2-enyl)-7-oxo-3-[2-oxo-ethylidene]-4-oxa-1-aza-bicyclo[3.2.0]heptane-2-carboxylic acid benzyl ester] registered an IC50 in assay [2] of 5900 nM.
`C=CC/C(CO)=C1\O[C@@H]2CC(=O)N2C1C(=O)OCc1ccccc1` (stereo partly drawn) [Example 38, (5R)-3-[1-Hydroxymethyl-but-3-en-(E)-ylidene]-7-oxo-4-oxa-1-aza-bicyclo[3.2.0]heptane-2-carboxylic acid benzyl ester]: the IC50 was 6810 nM in assay [1] (SHV-1, read-out: IC50) and 8020 nM in assay [2].
Consider `CC1C/C(=C2\O[C@@H]3CC(=O)N3C2C(=O)OCc2ccccc2)C(=O)O1` (single isomer, unassigned) [Example 45], for which the IC50 worked out at 3.4 nM in assay [1] (IC50, SHV-1) and 1.7 nM in assay [2].
For `O=CC=C1O[C@@H]2CC(=O)N2C1(C/C=C/c1ccccc1)C(=O)OCc1ccccc1` (single isomer, unassigned) [Example 6], the IC50 in assay [1] (SHV-1, read-out: IC50) was found to be 3950 nM; in assay [2], 2790 nM.
As for `C=CCC1(C(=O)OCc2ccccc2)/C(=C/CO)O[C@@H]2CC(=O)N21` (stereo partly drawn) [Example 40, (5R)-2-Allyl-3-[2-hydroxy-ethylidene]-7-oxo-4-oxa-1-aza-bicyclo[3.2.0]heptane-2-carboxylic acid benzyl ester], in assay [2], the IC50 is 23600 nM.
Regarding `CC(C)(C)C(=O)OCOC(=O)C1C(=C(C/C=C/c2ccccc2)C(=O)O)O[C@@H]2CC(=O)N12` (stereo partly drawn) [Example 37, (5R)-3-(1-Carboxy-4-phenyl-but-3-enylidene)-7-oxo-4-oxa-1-aza-bicyclo[3.2.0]heptane-2-carboxylic acid 2,2-dimethyl-propionyloxymethyl ester], the IC50 in assay [1] (SHV-1, read-out: IC50) turned out to be 141 nM; in assay [2], 44.2 nM.
The matching figures for `COC(=O)C1(C/C=C/c2ccccc2)C(=CC(=O)O)O[C@@H]2CC(=O)N21` (single isomer, unassigned) [Example 35]: 2310 nM and 1560 nM.
The matching figures for `C=CCC(C(=O)O)=C1O[C@@H]2CC(=O)N2C1C(=O)OC` (stereo partly drawn) [Example 32, (5R)-3-(1-Carboxy-but-3-enylidene)-7-oxo-4-oxa-1-aza-bicyclo[3.2.0]heptane-2-carboxylic acid methyl ester]: 339 nM and 122 nM.
`C=CCC1(C(=O)OCc2ccccc2)C(=CC=O)O[C@@H]2CC(=O)N21` (stereo partly drawn) [Example 2, (5R)-2-Allyl-7-oxo-3-[2-oxo-ethylidene]-4-oxa-1-aza-bicyclo[3.2.0]heptane-2-carboxylic acid benzyl ester]: in assay [2], the IC50 was found to be 945 nM.
In assay [2], `C=CCC(C=O)=C1O[C@@H]2CC(=O)N2C1(CC=C)C(=O)OCc1ccccc1` (stereo partly drawn) [Example 3, (5R)-2-Allyl-3-[1-formyl-but-3-enylidene]-7-oxo-4-oxa-1-aza-bicyclo[3.2.0]heptane-2-carboxylic acid benzyl ester] registered an IC50 of 8390 nM.
On the same count and under the same terms, with `CC(=O)OCC=CCC1(C(=O)OCc2ccccc2)C(=CC=O)O[C@@H]2CC(=O)N21` (stereo partly drawn) [Example 11, (5R)-2-(4-Acetoxy-but-2-enyl)-7-oxo-3-[2-oxo-ethylidene]-4-oxa-1-aza-bicyclo[3.2.0]heptane-2-carboxylic acid benzyl ester] the figure was 7310 nM; with `CC1CC(=C2O[C@@H]3CC(=O)N3C2C(=O)O)C(=O)O1` (stereo partly drawn) [Example 50, (5R)-3-(5-Methyl-2-oxo-dihydro-furan-3-ylidene)-7-oxo-4-oxa-1-aza-bicyclo[3.2.0]heptane-2-carboxylic acid], 4.2 nM.
